Patent US20110229571A1, “Pharmaceutical Compositions Comprising a Selective I1 Imidazoline Receptor Agonist and an Angiotensin II Receptor Blocker” (Abbott Products GmbH, priority 2003, published 2011)

Legend:
[1] = tested on: 2K1C (two-kidney one-clip) hypertensive rats; test: Blood pressure and heart rate (tail cuff) of two-kidney one-clip renal hypertensive rats after oral treatment; assay type: in vivo, rat; settings: for diastolic blood pressure (DBP) / mean blood pressure (MBP) / systolic blood pressure (SBP) / heart rate: Mox 1 mg/kg, Epro 3 mg/kg or both; for diastolic blood pressure (DBP) / mean blood pressure (MBP) / systolic blood pressure (SBP): mean ± SE of 12 animals; for heart rate: n 12; for maximal decrease in the diastolic blood pressure / maximal decrease in the systolic blood pressure: maximal effect 2 hours after oral administration, moxonidine 1 mg/kg or eprosartan 3 mg/kg; for effect on blood pressure (in words): oral, moxonidine 1 mg/kg, eprosartan 3 mg/kg or both
Source text: The “two-kidney one-clip” technique results in renal ischemia and in the development of hypertension. In the rat, this technique produces chronic changes, similar to those in human beings with unilateral renal artery stenosis. 2K1C rats represent a pressure overload model of hypertension, characterized by the activation of the renin-angiotensin aldosterone system (RAAS) and peripheral vasoconstriction. This model is widely used as a high renin model of hypertension for the evaluation of angiotensin converting enzyme (ACE) inhibitors and angiotensin receptor antagonists (ARBs). Animals: Male Sprague-Dawley CFY rats were used. Animals were fed commercial laboratory rat food pellet and allowed to drink tap water ad libitum throughout the experiments. Two-kidney one-clip hypertension: Under ether anesthesia an incision was made on the right side of the dorsalvertebrocostal angle. After light exterioration of the right kidney a silver clip was placed on the renal artery, close to its origin from the aorta. The left kidney was not disturbed. Measurement of blood pressure and heart rate: Blood pressure and heart rate were measured by the tail cuff method (Model 229, IITC Inc., CA, USA) from the 1st week after clipping the renal artery, once a week for 6 weeks. At the time of blood pressure measurements the animals were minimally warmed to an ambient temperature of 29° C. using a thermostated warming chamber. Experimental protocol: Animals developing stable hypertension during the 6-week-study period were used for the drug treatments. 12 animals with established hypertension were used for each treatment group as follows: • Vehicle • Moxonidine 1 mg/kg • Eprosartan 3 mg/kg • Moxonidine 1 mg/kg+Eprosartan 3 mg/kg The animals were treated orally and the blood pressure was measured 30 min, 1 h, 2 h and 4 hours there after. Different treatments were applied randomly during the day. Statistical analysis: Parameters were expressed as mean±standard error of the mean (SE) and after analysis of variance were compared by means of the modified ‘t’-statistical method of Wallenstein et al. [Wallenstein S et al. (1980) Circ. Res. 47:1-9].

[2] = tested on: Zucker rats; test: Oral glucose tolerance test in Zucker rats after 3 weeks of treatment; assay type: in vivo, rat
Procedure: The effect of a combined administration of Moxonidine as an example for a selective Imidazoline I1 receptor agonist and Eprosartan as an example for an Angiotensin II At1 receptor antagonist was analyzed by measuring their influence on plasma glucose level in “Zucker rats”. The “Zucker rat” is a model of impaired glucose tolerance and is widely used to analyze compound effects on glucose tolerance. Animals: Male Zucker rats (HsdOla fa/fa) from Harlan were used in the experiments. The animals were fed commercial lab chow and had unlimited access to tap water throughout the experiment. Experimental protocol: Animals were treated for 3 weeks with either vehicle or the active compounds. Moxonidine was applied via the drinking water. Eprosartan was administered daily into the stomach via a cannula. Ten animals were used in each of the following treatment groups: • Vehicle • Moxonidine 1 mg/kg • Moxonidine 1 mg/kg+Eprosartan 3 mg/kg • Moxonidine 1 mg/kg+Eprosartan 30 mg/kg • Moxonidine 1 mg/kg+Eprosartan 100 mg/kg At the end of the drug treatment period the animals were subjected to an oral glucose tolerance test. Animals were given a solution containing 2 g glucose via a cannula into the stomach. Blood samples were drawn before and at 30, 60, 90, and 120 minutes after the glucose load by tail vein cannulation and analyzed for plasma glucose levels. Statistical analysis: Parameters were expressed as mean±standard error of the mean (SE) and after analysis of variance were compared by means of T-Test.

[3] = 30 min after oral administration

Row | SMILES | diastolic blood pressure (DBP) [1, 3] | mean blood pressure (MBP) [1, 3] | systolic blood pressure (SBP) [1, 3] | heart rate [1, 3] | diastolic blood pressure (DBP) ([1]; 1 h after oral administration) | mean blood pressure (MBP) ([1]; 1 h after oral administration) | systolic blood pressure (SBP) ([1]; 1 h after oral administration) | heart rate ([1]; 1 h after oral administration) | diastolic blood pressure (DBP) ([1]; 2 h after oral administration) | mean blood pressure (MBP) ([1]; 2 h after oral administration) | systolic blood pressure (SBP) ([1]; 2 h after oral administration) | heart rate ([1]; 2 h after oral administration) | diastolic blood pressure (DBP) ([1]; 4 h after oral administration) | mean blood pressure (MBP) ([1]; 4 h after oral administration) | systolic blood pressure (SBP) ([1]; 4 h after oral administration) | heart rate ([1]; 4 h after oral administration) | maximal decrease in the diastolic blood pressure [1] | maximal decrease in the systolic blood pressure [1] | effect on blood pressure (in words) [1] | also measured
1 | CCCCc1ncc(/C=C(\Cc2cccs2)C(=O)O)n1Cc1ccc(C(=O)O)cc1 [Eprosartan] | 111 ± 2.8 mmHg | 117 ± 2.8 mmHg | 131 ± 2.8 mmHg | 370 ± 6.9 beats/min | 109 ± 2.3 mmHg | 116 ± 2.5 mmHg | 131 ± 3.1 mmHg | 375 ± 7.4 beats/min | 98 ± 4.8 mmHg | 105 ± 4.6 mmHg | 119 ± 4.5 mmHg | 378 ± 4.3 beats/min | 106 ± 6.6 mmHg | 112 ± 6.6 mmHg | 125 ± 6.1 mmHg | 376 ± 5.2 beats/min | 21% | 19% | significantly decreased the blood pressure | 
2 | COc1nc(C)nc(Cl)c1NC1=NCCN1 [Moxonidine, 4-Chloro-5-[(4,5-dihydro-1H-imidazol-2-yl)-amino]-6-methoxy-2-methylpyrimidine] | 118 ± 3.1 mmHg | 124 ± 3.2 mmHg | 136 ± 3.6 mmHg | 383 ± 5.3 beats/min | 110 ± 3.3 mmHg | 117 ± 2.6 mmHg | 130 ± 2.1 mmHg | 376 ± 6.7 beats/min | 100 ± 4.8 mmHg | 107 ± 4.2 mmHg | 122 ± 3.5 mmHg | 368 ± 5.9 beats/min | 109 ± 3.8 mmHg | 116 ± 3.5 mmHg | 129 ± 3.1 mmHg | 384 ± 6.0 beats/min | 19% | 16% | significantly decreased the blood pressure | plasma glucose level ([2]; 0 min (before glucose challenge), 1 mg/kg Mox, mean ± SE of 10 animals): 97 ± 6 mg/dL; plasma glucose AUC (area under the curve) ([2]; 0-120 min after glucose challenge, 1 mg/kg Mox): 24960 ± 1268 mg·min/dL; plasma glucose level ([2]; 30 min after glucose challenge, 1 mg/kg Mox): 240 ± 15 mg/dL; plasma glucose level ([2]; 60 min after glucose challenge, 1 mg/kg Mox): 211 ± 15 mg/dL; plasma glucose level ([2]; 90 min after glucose challenge, 1 mg/kg Mox): 221 ± 11 mg/dL; plasma glucose level ([2]; 120 min after glucose challenge, 1 mg/kg Mox): 224 ± 14 mg/dL; effect on plasma glucose levels after oral glucose challenge (in words) ([2]; Moxonidine 1 mg/kg alone or with Eprosartan 3, 30, 100 mg/kg): significant reduction in plasma glucose levels at 60 and 90 minutes
